The record followed here is patent publication US10010527B2, “Active metabolite of 1-[(2-bromophenyl)sulfonyl]-5-methoxy-3-[(4-methyl-1-piperazinyl)methyl]-1H-indole dimesylate monohydrate and dimesylate dihydrate salt of active metabolite” (SUVEN LIFE SCIENCES LIMITED, priority 2014, dated 2018).

This assay has as its system rats. The assay can be described thus: Radial arm maze (reversal of scopolamine induced amnesia). It is filed as in vivo, rat. Conditions: p.o. An excerpt:
Example 4: Radial Arm Maze
The cognition enhancing properties of formula (I) and formula (II) of this invention were estimated by using this model.
Radial arm maze consists of a central hub of 45 centimeter diameter. Each arm was of dimension 42.5×15×24 centimeter. The maze was elevated to a height of 1 meter above the ground. The animals were placed on a restricted diet until they reached approximately 85% of their free feeding weight. During this diet restriction period animals were habituated to the novel feed (pellets). Once the rats reached approximately 85% of their free feeding weight rats were habituated to the maze on the 1st and 2nd day. […] Animals were randomized on day 2. On the subsequent days the treatment was given as per the allotment. Each animal was introduced into the maze individually for a period of 10 minutes. The arms were baited only once and the animal had to learn the rule that repeated arm entries would not be rewarded. The trial ended once the rat had visited 16 arms or 10 minutes were over or all the pellets were eaten. The arm entries were recorded using the software.

Each structure is given as a SMILES string.

As for `COc1ccc2c(c1)c(CN1CCNCC1)cn2S(=O)(=O)c1ccccc1Br` [Example 1, 1-[(2-Bromophenyl)sulfonyl]-5-methoxy-3-[(1-piperazinyl)methyl]-1H-indole], the “Reversal of Scopolamine Induced amnesia - Effective dose range” value is recorded as 10-20 mg/kg, p.o. Turning to `COc1ccc2c(c1)c(CN1CCNCC1)cn2S(=O)(=O)c1ccccc1Br` [Example 2, 1-[(2-Bromophenyl)sulfonyl]-5-methoxy-3-[(1-piperazinyl)methyl]-1H-indole dimesylate dihydrate], the “Reversal of Scopolamine Induced amnesia - Effective dose range” value (dimesylate dihydrate) was 5-20 mg/kg, p.o.
